From US12410208B2, “(2-acetamidyl)thio-beta-D-galactopyranoside derivatives” (Idorsia Pharmaceuticals Ltd, priority 2020, dated 2025)
Read-outs that look alike come from different tables or passages of the source.

Tests used:
[1] = target: biotinylated human Gal-3 (hGal-3) (Homo sapiens, UniProt P17931); assay: Competitive binding assay: biotinylated hGal-3 binding to microplate-adsorbed asialofetuin (ASF), spectrophotometric
Summary of the method: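 Serially diluted compounds competed with asialofetuin on the plate for biotinylated human Gal-3 during a 3 h incubation at 4° C. Streptavidin-peroxidase with ABTS gave the spectrophotometric signal. IC50 values were averaged over repeat runs.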

[2] = target: human Gal-1 (hGal-1) (Homo sapiens, UniProt P09382); assay: Competitive binding assay: biotinylated hGal-1 binding to microplate-adsorbed asialofetuin (ASF), spectrophotometric; settings: hGal-1 binding to asialofetuin; Table 15; R and S epimers of selected Examples also listed; read-out: IC50 (Galectin-1 inhibition)
Chain of human Gal-1 (hGal-1) (P09382 whole entry): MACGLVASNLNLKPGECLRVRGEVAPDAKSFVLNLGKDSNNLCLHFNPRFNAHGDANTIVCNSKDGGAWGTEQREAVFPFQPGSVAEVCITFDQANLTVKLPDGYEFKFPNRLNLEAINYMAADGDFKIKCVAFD
Summary of the method: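 Spectrophotometric competition readout with ABTS after streptavidin-peroxidase (80 ng/mL, 1 h, 4 °C) detection of bound biotinylated hGal-1.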

[3] = Gal-3 inhibition, Table 4, read-out: IC50
[4] = Table 12, hGal-3, read-out: IC50 (Gal-3 inhibition)
[5] = Gal-3 inhibition, Table 5, read-out: IC50

Chain of biotinylated human Gal-3 (hGal-3) (P17931 whole entry): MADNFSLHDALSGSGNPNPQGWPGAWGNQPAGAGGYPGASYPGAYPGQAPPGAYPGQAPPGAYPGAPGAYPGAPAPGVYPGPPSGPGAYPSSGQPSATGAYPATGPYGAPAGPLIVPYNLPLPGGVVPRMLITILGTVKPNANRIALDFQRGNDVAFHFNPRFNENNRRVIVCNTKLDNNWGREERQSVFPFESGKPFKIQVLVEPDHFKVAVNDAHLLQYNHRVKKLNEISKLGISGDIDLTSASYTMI

| IC50 [2] [µM] | IC50 [1, 5] [µM] | Structure (SMILES) | other results |
| --- | --- | --- | --- |
| 1.12 | – | CN(Cc1cccs1)C(=O)C(S[C@@H]1O[C@H](CO)[C@H](O)[C@H](n2cc(-c3cc(F)c(F)c(F)c3)nn2)[C@H]1O)C1(O)CCOCC1 (stereo partly drawn) [Example 2.41.210., 2-(((2S,3R,4S,5R,6R)-3,5-dihydroxy-6-(hydroxymethyl)-4-(4-(3,4,5-trifluorophenyl)-1H-1,2,3-triazol-1-yl)tetrahydro-2H-pyran-2-yl)thio)-2-(4-hydroxytetrahydro-2H-pyran-4-yl)-N-methyl-N-(thiophen-2-ylmethyl)acetamide] | IC50 [1, 3]: 0.44 µM |
| 3.4 | – | CCC(O)C(S[C@@H]1O[C@H](CO)[C@H](O)[C@H](n2cc(-c3cc(F)c(F)c(F)c3)nn2)[C@H]1O)C(=O)N1CCC1 (stereo partly drawn) [Example 2.60.206., 1-(Azetidin-1-yl)-2-(((2S,3R,4S,5R,6R)-3,5-dihydroxy-6-(hydroxymethyl)-4-(4-(3,4,5-trifluorophenyl)-1H-1,2,3-triazol-1-yl)tetrahydro-2H-pyran-2-yl)thio)-3-hydroxypentan-1-one] | IC50 ([1]; Gal-3 inhibition, Table 7, read-out: IC50): 0.5 µM |
| 4.9 | – | CC1CN(C(=O)[C@H](S[C@@H]2O[C@H](CO)[C@H](O)[C@H](n3cc(-c4cc(F)c(F)c(F)c4)nn3)[C@H]2O)C2(O)CCOCC2)C1 [Example 2.41.205R., (R)-2-(((2S,3R,4S,5R,6R)-3,5-Dihydroxy-6-(hydroxymethyl)-4-(4-(3,4,5-trifluorophenyl)-1H-1,2,3-triazol-1-yl)tetrahydro-2H-pyran-2-yl)thio)-2-(4-hydroxytetrahydro-2H-pyran-4-yl)-1-(3-methylazetidin-1-yl)ethan-1-one] | IC50 [1, 3]: 1 µM |
| 1.4 | – | CC(C)(O)C(S[C@@H]1O[C@H](CO)[C@H](O)[C@H](n2cc(-c3cc(F)c(F)c(F)c3)nn2)[C@H]1O)C(=O)N1CCC1 (stereo partly drawn) [Example 2.31.206., 1-(Azetidin-1-yl)-2-(((2S,3R,4S,5R,6R)-3,5-dihydroxy-6-(hydroxymethyl)-4-(4-(3,4,5-trifluorophenyl)-1H-1,2,3-triazol-1-yl)tetrahydro-2H-pyran-2-yl)thio)-3-hydroxy-3-methylbutan-1-one] | IC50 ([1]; Gal-3 inhibition, Table 3, read-out: IC50): 0.2 µM |
| 0.67 | – | CO[C@@H]1[C@@H](n2cc(-c3cc(F)c(F)c(F)c3)nn2)[C@@H](O)[C@@H](CO)O[C@H]1SC(C(=O)NC1CC(F)(F)C1)C1(O)CCC(F)(F)CC1 (stereo partly drawn) [Example 2.44.253.I., 2-(4,4-Difluoro-1-hydroxycyclohexyl)-N-(3,3-difluorocyclobutyl)-2-(((2S,3R,4S,5R,6R)-5-hydroxy-6-(hydroxymethyl)-3-methoxy-4-(4-(3,4,5-trifluorophenyl)-1H-1,2,3-triazol-1-yl)tetrahydro-2H-pyran-2-yl)thio)acetamide] | IC50 [1, 4]: 0.16 µM |
| 0.11 | 0.04 | CN(CC(F)(F)F)C(=O)C(S[C@@H]1O[C@H](CO)[C@H](O)[C@H](n2cc(-c3cc(F)c(F)c(F)c3)nn2)[C@H]1O)C1(O)CCCC1 (stereo partly drawn) [Example 2.38.219., 2-(((2S,3R,4S,5R,6R)-3,5-Dihydroxy-6-(hydroxymethyl)-4-(4-(3,4,5-trifluorophenyl)-1H-1,2,3-triazol-1-yl)tetrahydro-2H-pyran-2-yl)thio)-2-(1-hydroxycyclopentyl)-N-methyl-N-(2,2,2-trifluoroethyl)acetamide] | – |
| 1.1 | – | CO[C@@H]1[C@@H](n2cc(-c3cc(F)c(F)c(F)c3)nn2)[C@@H](O)[C@@H](CO)O[C@H]1S[C@@H](C(=O)N1CCC(F)(F)CC1)C1(O)CCC2(CCCC2)CC1 [Example 2.71.226R.I., (R)-1-(4,4-Difluoropiperidin-1-yl)-2-(((2S,3R,4S,5R,6R)-5-hydroxy-6-(hydroxymethyl)-3-methoxy-4-(4-(3,4,5-trifluorophenyl)-1H-1,2,3-triazol-1-yl)tetrahydro-2H-pyran-2-yl)thio)-2-(8-hydroxyspiro[4.5]decan-8-yl)ethan-1-one] | IC50 ([1]; Table 13, hGal-3, read-out: IC50 (Gal-3 inhibition)): 0.67 µM |
| 0.73 | – | CCN(C)C(=O)[C@@H](S[C@@H]1O[C@H](CO)[C@H](O)[C@H](n2cc(-c3cc(F)c(F)c(F)c3)nn2)[C@H]1O)C(O)(CC)CC [Example 2.32.203S., (S)-2-(((2S,3R,4S,5R,6R)-3,5-Dihydroxy-6-(hydroxymethyl)-4-(4-(3,4,5-trifluorophenyl)-1H-1,2,3-triazol-1-yl)tetrahydro-2H-pyran-2-yl)thio)-N,3-diethyl-3-hydroxy-N-methylpentanamide] | IC50 ([1]; Table 6, hGal-3, read-out: IC50 (Gal-3 inhibition)): 0.24 µM |
| 0.17 | 0.12 | CCN(C)C(=O)[C@@H](S[C@@H]1O[C@H](CO)[C@H](O)[C@H](n2cc(-c3cc(F)c(F)c(F)c3)nn2)[C@H]1O)C1(O)CCC1 [Example 2.34.203S., (S)-2-(((2S,3R,4S,5R,6R)-3,5-Dihydroxy-6-(hydroxymethyl)-4-(4-(3,4,5-trifluorophenyl)-1H-1,2,3-triazol-1-yl)tetrahydro-2H-pyran-2-yl)thio)-N-ethyl-2-(1-hydroxycyclobutyl)-N-methylacetamide] | – |
| 0.36 | – | CO[C@@H]1[C@@H](n2cc(-c3cc(F)c(F)c(F)c3)nn2)[C@@H](O)[C@@H](CO)O[C@H]1SC(C(=O)NC1CCOCC1)C1(O)CCC(F)(F)CC1 (stereo partly drawn) [Example 2.44.249.I., 2-(4,4-Difluoro-1-hydroxycyclohexyl)-2-(((2S,3R,4S,5R,6R)-5-hydroxy-6-(hydroxymethyl)-3-methoxy-4-(4-(3,4,5-trifluorophenyl)-1H-1,2,3-triazol-1-yl)tetrahydro-2H-pyran-2-yl)thio)-N-(tetrahydro-2H-pyran-4-yl)acetamide] | IC50 [1, 4]: 0.08 µM |
| 0.09 | 0.02 | CN(CC(C)(C)F)C(=O)[C@@H](S[C@@H]1O[C@H](CO)[C@H](O)[C@H](n2cc(-c3cc(F)c(F)c(F)c3)nn2)[C@H]1O)C1(O)CCCCC1 [Example 2.39.222S., (S)-2-(((2S,3R,4S,5R,6R)-3,5-Dihydroxy-6-(hydroxymethyl)-4-(4-(3,4,5-trifluorophenyl)-1H-1,2,3-triazol-1-yl)tetrahydro-2H-pyran-2-yl)thio)-N-(2-fluoro-2-methylpropyl)-2-(1-hydroxycyclohexyl)-N-methylacetamide] | – |
| 0.12 | 0.05 | CN(CC1(F)CCCC1)C(=O)C(S[C@@H]1O[C@H](CO)[C@H](O)[C@H](n2cc(-c3cc(F)c(F)c(F)c3)nn2)[C@H]1O)C1(O)CCC(F)(F)CC1 (mixture of isomers) [Example 2.44.223., 2-(4,4-Difluoro-1-hydroxycyclohexyl)-2-(((2S,3R,4S,5R,6R)-3,5-dihydroxy-6-(hydroxymethyl)-4-(4-(3,4,5-trifluorophenyl)-1H-1,2,3-triazol-1-yl)tetrahydro-2H-pyran-2-yl)thio)-N-((1-fluorocyclopentyl)methyl)-N-methylacetamide] | – |
| 0.77 | 0.23 | O=C(C(S[C@@H]1O[C@H](CO)[C@H](O)[C@H](n2cc(-c3cc(F)c(F)c(F)c3)nn2)[C@H]1O)C1(O)CCCC1)N1CCC1 (stereo partly drawn) [Example 2.38.206., 1-(Azetidin-1-yl)-2-(((2S,3R,4S,5R,6R)-3,5-dihydroxy-6-(hydroxymethyl)-4-(4-(3,4,5-trifluorophenyl)-1H-1,2,3-triazol-1-yl)tetrahydro-2H-pyran-2-yl)thio)-2-(1-hydroxycyclopentyl)ethan-1-one] | – |
| 1.8 | – | CN(C)C(=O)C(S[C@@H]1O[C@H](CO)[C@H](O)[C@H](n2cc(-c3cc(F)c(F)c(F)c3)nn2)[C@H]1O)C1(O)CCOCC1 (stereo partly drawn) [Example 2.41.201., 2-(((2S,3R,4S,5R,6R)-3,5-Dihydroxy-6-(hydroxymethyl)-4-(4-(3,4,5-trifluorophenyl)-1H-1,2,3-triazol-1-yl)tetrahydro-2H-pyran-2-yl)thio)-2-(4-hydroxytetrahydro-2H-pyran-4-yl)-N,N-dimethylacetamide] | IC50 [1, 3]: 0.18 µM |
| 0.33 | – | O=C(C(S[C@@H]1O[C@H](CO)[C@H](O)[C@H](n2cc(-c3cc(F)c(F)c(F)c3)nn2)[C@H]1O)C1(O)CCOCC1)N1CCCC1 (stereo partly drawn) [Example 2.41.211., 2-(((2S,3R,4S,5R,6R)-3,5-Dihydroxy-6-(hydroxymethyl)-4-(4-(3,4,5-trifluorophenyl)-1H-1,2,3-triazol-1-yl)tetrahydro-2H-pyran-2-yl)thio)-2-(4-hydroxytetrahydro-2H-pyran-4-yl)-1-(pyrrolidin-1-yl)ethan-1-one] | IC50 [1, 3]: 0.13 µM |
| 0.08 | – | CO[C@@H]1[C@@H](n2cc(-c3cc(F)c(F)c(F)c3)nn2)[C@@H](O)[C@@H](CO)O[C@H]1SC(C(=O)N(C)CC1CC1)C1(O)CCC(F)(F)CC1 (stereo partly drawn) [Example 2.44.218.I., N-(Cyclopropylmethyl)-2-(4,4-difluoro-1-hydroxycyclohexyl)-2-(((2S,3R,4S,5R,6R)-5-hydroxy-6-(hydroxymethyl)-3-methoxy-4-(4-(3,4,5-trifluorophenyl)-1H-1,2,3-triazol-1-yl)tetrahydro-2H-pyran-2-yl)thio)-N-methylacetamide] | IC50 [1, 4]: 0.03 µM |
| 0.17 | 0.07 | CCN(C)C(=O)C(S[C@@H]1O[C@H](CO)[C@H](O)[C@H](n2cc(-c3cc(F)c(F)c(F)c3)nn2)[C@H]1O)C1(O)CCCCC1 (stereo partly drawn) [Example 2.39.203., 2-(((2S,3R,4S,5R,6R)-3,5-Dihydroxy-6-(hydroxymethyl)-4-(4-(3,4,5-trifluorophenyl)-1H-1,2,3-triazol-1-yl)tetrahydro-2H-pyran-2-yl)thio)-N-ethyl-2-(1-hydroxycyclohexyl)-N-methylacetamide] | – |
